Measurements: ChEMBL document CHEMBL1201862, “PubChem BioAssay data set” (2004)
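Exposure lasted 48 hours, with cells grown in 96-well plates and compounds tested at five concentrations. GI50: concentration for 50% inhibition of growth.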 Active and inactive are the calls of the source. Rule as the data show it: active = GI50 up to about 1.1 µM and inactive = higher.

What was measured:
Test in all cases: NCI-60 cell line screen, 48 h
MDA-MB-231 = tested on: MDA-MB-231
NCI/ADR-RES = tested on: NCI/ADR-RES
COLO 205 = tested on: COLO 205
PC-3 = tested on: PC-3
T47D = tested on: T47D
U-251 = tested on: U-251
SNB-75 = tested on: SNB-75
OVCAR-3 = tested on: OVCAR-3
SN12C = tested on: SN12C
SF-539 = tested on: SF-539
SK-MEL-2 = tested on: SK-MEL-2
NCI-H226 = tested on: NCI-H226
OVCAR-8 = tested on: OVCAR-8
HOP-62 = tested on: HOP-62
NCI-H23 = tested on: NCI-H23
ACHN = tested on: ACHN
HCC 2998 = tested on: HCC 2998
RXF 393 = tested on: RXF 393
HL-60 = tested on: HL-60

| SMILES | GI50 (MDA-MB-231) | GI50 (NCI/ADR-RES) | GI50 (COLO 205) | GI50 (PC-3) | GI50 (T47D) | GI50 (U-251) | GI50 (SNB-75) | GI50 (OVCAR-3) | GI50 (SN12C) | GI50 (SF-539) | GI50 (SK-MEL-2) | GI50 (NCI-H226) | GI50 (OVCAR-8) | GI50 (HOP-62) | GI50 (NCI-H23) | GI50 (ACHN) | GI50 (HCC 2998) | GI50 (RXF 393) | GI50 (HL-60) |
| --- | --- | --- | --- | --- | --- | --- | --- | --- | --- | --- | --- | --- | --- | --- | --- | --- | --- | --- | --- |
| Cc1ccc(S(=O)(=O)c2ccsc2NC(=O)c2ccccc2)cc1 | 14.8 µM (inactive) | 35.2 µM (inactive) | > 100 µM (inactive) | > 81.5 µM (inactive) | > 100 µM (inactive) | 49.3 µM (inactive) | 28.2 µM (inactive) | > 100 µM (inactive) | > 100 µM (inactive) | 15.4 µM (inactive) | > 57 µM (inactive) | > 60.4 µM (inactive) | 28.6 µM (inactive) | 17 µM (inactive) | > 31.6 µM (inactive) | > 42.6 µM (inactive) | > 100 µM (inactive) |  |  |
| CSc1ncc2c(n1)sc1c(=O)n(-c3ccccc3)cnc12 | > 100 µM (inactive) | > 100 µM (inactive) | > 100 µM (inactive) | > 100 µM (inactive) | > 100 µM (inactive) | > 100 µM (inactive) | > 100 µM (inactive) | > 100 µM (inactive) | > 100 µM (inactive) |  | > 100 µM (inactive) | > 100 µM (inactive) | > 100 µM (inactive) | > 100 µM (inactive) | > 100 µM (inactive) | > 100 µM (inactive) | > 100 µM (inactive) | > 100 µM (inactive) |  |
| N#CC(C#N)=C(N)/C(C#N)=C/c1ccc2ccccc2n1 | 23.7 µM (inactive) | 34.3 µM (inactive) |  | 26.2 µM (inactive) | > 100 µM (inactive) | > 10 µM (inactive) | 25.8 µM (inactive) | 13.5 µM (inactive) | 30.1 µM (inactive) |  | 35 µM (inactive) | 93.5 µM (inactive) | 30.5 µM (inactive) | 16 µM (inactive) | 31.6 µM (inactive) | 17.2 µM (inactive) | 77.3 µM (inactive) | 20 µM (inactive) |  |
| Cc1ccc(NC(=O)COc2ccc(Cl)cc2)cc1Cl | 15.2 µM (inactive) | 78.2 µM (inactive) | > 100 µM (inactive) | > 100 µM (inactive) | > 100 µM (inactive) | 27.4 µM (inactive) | 59 µM (inactive) | > 100 µM (inactive) | 38.2 µM (inactive) | 83.6 µM (inactive) | > 100 µM (inactive) | 31 µM (inactive) | 28.9 µM (inactive) | 20 µM (inactive) | 19.7 µM (inactive) | 42.7 µM (inactive) |  | 24.7 µM (inactive) |  |
| CC(C)CNP(=O)(NCC(C)C)Oc1ccc(CC(NC(=O)OCc2ccccc2)C(=O)OCc2ccccc2)cc1 (stereo unspecified) | 17.7 µM (inactive) | 28.8 µM (inactive) | 19.2 µM (inactive) | 17.1 µM (inactive) | 13.4 µM (inactive) | 16.5 µM (inactive) | 19.5 µM (inactive) | 3.68 µM (inactive) | 18.8 µM (inactive) |  | 18.5 µM (inactive) | 56.1 µM (inactive) | 17.3 µM (inactive) | 14.7 µM (inactive) | 15.3 µM (inactive) | 16.9 µM (inactive) | 16.8 µM (inactive) | 18.5 µM (inactive) |  |
| Cn1c(C(C#N)c2nc(Cl)ncc2Br)nc2ccccc21 (stereo unspecified) | > 100 µM (inactive) | > 100 µM (inactive) | > 100 µM (inactive) |  | > 100 µM (inactive) | > 100 µM (inactive) | 82 µM (inactive) | > 100 µM (inactive) | > 100 µM (inactive) | 44.5 µM (inactive) |  | > 100 µM (inactive) | > 100 µM (inactive) | > 100 µM (inactive) | > 100 µM (inactive) | > 100 µM (inactive) |  | > 100 µM (inactive) |  |
| CC1(C)OC2OC(COC(=O)c3ccc(C#N)cc3)C3OC(C)(C)OC3C2O1 (stereo unspecified) | > 75 µM (inactive) | > 75 µM (inactive) | > 75 µM (inactive) | > 75 µM (inactive) |  | > 75 µM (inactive) | > 75 µM (inactive) | > 75 µM (inactive) | > 75 µM (inactive) | > 75 µM (inactive) | > 75 µM (inactive) | > 75 µM (inactive) | > 75 µM (inactive) | > 75 µM (inactive) | > 75 µM (inactive) | > 75 µM (inactive) | > 75 µM (inactive) | > 75 µM (inactive) |  |
| CC1=C(C(=O)OCCc2ccc([N+](=O)[O-])cc2)C(c2cccc([N+](=O)[O-])c2)C(C(=O)OC(C)C)=C(C)N1 (stereo unspecified) |  | 3.33 µM (inactive) | 5.81 µM (inactive) | 2.26 µM (inactive) | 2.94 µM (inactive) | 5.69 µM (inactive) | 5.69 µM (inactive) | 7.59 µM (inactive) | 11.8 µM (inactive) | > 100 µM (inactive) | 7.62 µM (inactive) | 2.86 µM (inactive) | 4.88 µM (inactive) | 5.55 µM (inactive) | 4.3 µM (inactive) | 4.82 µM (inactive) | 75.9 µM (inactive) | 2.91 µM (inactive) | 3.52 µM (inactive) |
| CC(C)(C)OC(=O)C1C(=O)NC(=O)CC1CC(OCc1ccccc1)C(COCc1ccccc1)OCc1ccccc1 (stereo unspecified) |  | 10 µM (inactive) |  | 6.44 µM (inactive) |  | 5.18 µM (inactive) |  |  | 25 µM (inactive) | 10.9 µM (inactive) |  | 10.9 µM (inactive) | 10.3 µM (inactive) |  | 10.1 µM (inactive) | 10.2 µM (inactive) | 3.81 µM (inactive) | 2.55 µM (inactive) | 1.97 µM (inactive) |
| Nn1c(S)nnc1-c1ccccc1Nc1ccccc1-c1nnc(S)n1N |  | > 50 µM (inactive) | > 50 µM (inactive) | > 50 µM (inactive) |  | > 50 µM (inactive) | > 50 µM (inactive) | > 50 µM (inactive) |  | > 50 µM (inactive) | > 50 µM (inactive) | > 50 µM (inactive) | > 50 µM (inactive) | > 50 µM (inactive) | > 50 µM (inactive) | > 50 µM (inactive) | > 50 µM (inactive) | > 50 µM (inactive) | > 50 µM (inactive) |
| Cn1cc(NC(=O)c2cc(NC(=O)CCCCCCCCCCC(=O)Nc3cc(C(=O)Nc4cc(C(=O)NCCC(=N)N)n(C)c4)n(C)c3)cn2C)cc1C(=O)NCCC(=N)N |  |  | 9.73 µM (inactive) |  |  | 33 µM (inactive) | > 100 µM (inactive) | 52.7 µM (inactive) | 37.1 µM (inactive) | 47.6 µM (inactive) | 35.8 µM (inactive) | > 100 µM (inactive) | 20.3 µM (inactive) | 25.9 µM (inactive) | 32 µM (inactive) | 29.9 µM (inactive) | 19 µM (inactive) | 17.8 µM (inactive) |  |
| Cn1c2ccccc2c2c3c(c4c5ccccc5n(C)c4c21)C(=O)N(c1ccccc1)C3=O | > 100 µM (inactive) | > 100 µM (inactive) | > 100 µM (inactive) | > 100 µM (inactive) | > 100 µM (inactive) | > 100 µM (inactive) | > 100 µM (inactive) | > 100 µM (inactive) | > 100 µM (inactive) | > 100 µM (inactive) | > 100 µM (inactive) | > 100 µM (inactive) | > 100 µM (inactive) | > 100 µM (inactive) | > 100 µM (inactive) | > 100 µM (inactive) | > 100 µM (inactive) |  |  |
| COC(=O)C(C)(C)OCc1ccc(C2NC(=O)N(c3cccc(Cl)c3)C(=O)N2c2cccc(Cl)c2)cc1 (stereo unspecified) | 55 µM (inactive) | 17.1 µM (inactive) | 28.6 µM (inactive) | 20.2 µM (inactive) |  | 58.5 µM (inactive) | 0.34 µM (active) | 56.2 µM (inactive) | 29.2 µM (inactive) | 50.1 µM (inactive) | 52.8 µM (inactive) |  | 32.6 µM (inactive) | 99.8 µM (inactive) | 1.26 µM (inactive) | 47.9 µM (inactive) | 40.6 µM (inactive) | 26.4 µM (inactive) |  |
| CC(=O)OCCC1c2ccccc2-n2nc(-c3ccccc3)c(O)c21 (stereo unspecified) | 19.3 µM (inactive) | 14.8 µM (inactive) | 20.1 µM (inactive) | 17.3 µM (inactive) |  | 13.3 µM (inactive) | 20.8 µM (inactive) | 21.3 µM (inactive) | 14.8 µM (inactive) | 21.6 µM (inactive) | 27.1 µM (inactive) | 26 µM (inactive) | 15.7 µM (inactive) | 15.2 µM (inactive) | 16.6 µM (inactive) | 19.1 µM (inactive) | 24.8 µM (inactive) | 12.3 µM (inactive) | 11.1 µM (inactive) |
| COc1cc(C(c2ccccc2)N2C(=O)CC[C@H]2C(=O)O)cc(OC)c1OC (stereo partly specified) |  | > 100 µM (inactive) | > 100 µM (inactive) | > 100 µM (inactive) | > 100 µM (inactive) | > 100 µM (inactive) | > 100 µM (inactive) | > 100 µM (inactive) | > 100 µM (inactive) | > 100 µM (inactive) | > 100 µM (inactive) | > 100 µM (inactive) | > 100 µM (inactive) | > 100 µM (inactive) | > 100 µM (inactive) | > 100 µM (inactive) | > 100 µM (inactive) |  | > 100 µM (inactive) |
| CCOC(=O)CNC(=O)C(CSC(=O)N(O)c1ccc(Cl)cc1)NC(=O)CCC(N)C(=O)OCC (stereo unspecified) | 21 µM (inactive) | > 50 µM (inactive) | > 50 µM (inactive) | > 50 µM (inactive) | > 50 µM (inactive) | > 50 µM (inactive) |  | > 50 µM (inactive) | > 50 µM (inactive) | > 50 µM (inactive) | > 50 µM (inactive) | 1.32 µM (inactive) | > 50 µM (inactive) | 24.3 µM (inactive) | > 50 µM (inactive) | > 50 µM (inactive) | 4.75 µM (inactive) | > 50 µM (inactive) |  |
